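Cultured in 96-well plates, cells were exposed to test compound for 48 hours across five concentrations. TGI is the concentration that stops growth completely.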
Tests used:
Experiment in all cases: DTP human tumour cell line panel, 48 h
SR leukemia = tested on: SR leukemia
HS 578T breast = tested on: HS 578T breast
SK-MEL-5 melanoma = tested on: SK-MEL-5 melanoma
MDA-MB-231 breast = tested on: MDA-MB-231 breast
NCI-H226 lung = tested on: NCI-H226 lung
HCT-15 colon = tested on: HCT-15 colon
SK-MEL-2 melanoma = tested on: SK-MEL-2 melanoma
NCI-H460 lung = tested on: NCI-H460 lung
OVCAR-4 ovarian = tested on: OVCAR-4 ovarian
COLO 205 colon = tested on: COLO 205 colon
UACC-257 melanoma = tested on: UACC-257 melanoma
TK-10 renal = tested on: TK-10 renal
MCF7 breast = tested on: MCF7 breast
LOX IMVI melanoma = tested on: LOX IMVI melanoma
RXF 393 renal = tested on: RXF 393 renal

Compound | TGI (SR leukemia) [µM] | TGI (HS 578T breast) [µM] | TGI (SK-MEL-5 melanoma) [µM] | TGI (MDA-MB-231 breast) [µM] | TGI (NCI-H226 lung) [µM] | TGI (HCT-15 colon) [µM] | TGI (SK-MEL-2 melanoma) [µM] | TGI (NCI-H460 lung) [µM] | TGI (OVCAR-4 ovarian) [µM] | TGI (COLO 205 colon) [µM] | TGI (UACC-257 melanoma) [µM] | TGI (TK-10 renal) [µM] | TGI (MCF7 breast) [µM] | TGI (LOX IMVI melanoma) [µM] | TGI (RXF 393 renal) [µM]
C[C@@H]1C[C@](O)([C@@H](C)Cl)C(=O)O[C@@H]2CCN3CC=C(COC(=O)[C@]1(C)O)[C@H]23 | > 100 | > 100 | > 100 | > 100 | > 100 | > 100 | > 100 | > 10 | > 100 | > 100 | > 100 | > 100 | > 100 | > 100 | 
CCOP(=O)(O)C(C)(C)NC |  | > 100 | > 100 | > 100 | > 100 | > 100 | > 100 | > 100 | > 100 | > 100 | > 100 | > 100 |  | > 100 | > 100
COc1ccc(/C=N/n2c(-c3ccccc3)n[nH]c2=O)cc1 |  | 93.7 |  | > 100 | > 100 | > 100 | > 100 | > 100 | > 100 | > 100 | > 100 |  | > 100 |  | 
CCCNC(=S)/N=C/c1c(O)c2ccccc2[nH]c1=O |  | > 100 | > 100 | > 100 | > 100 | > 100 | > 100 | > 100 | > 100 | > 100 | > 100 | > 100 | > 100 | > 100 | > 100
CCOC(=O)c1ccc(NC(=O)O/N=C(/Cl)CCl)cc1 | > 100 | > 100 | > 100 | > 100 |  | > 100 | > 100 | > 100 | > 100 | > 100 | > 100 | > 100 | 76 | > 100 | 
N#C/C(N)=C(\C#N)NC=NCc1ccccc1 | > 100 | > 100 | > 100 | > 100 | > 100 | > 100 | > 100 | > 100 | > 100 | > 100 | > 100 | > 100 | > 100 | > 100 | 
COc1ccc(-c2nc(SCC(=O)N/N=C/c3ccc(O)c(OC)c3)[nH]c2-c2ccc(OC)cc2)cc1 |  |  | 31.7 | 84.5 |  | 82.8 | 33.5 | 75.6 | > 100 | 34.4 | 69.5 | > 100 | 33.6 | 46.7 | 36.5
COc1cc2c(cc1O)C1C(O)C(O)C=C3CCN(C2)C31 (stereo unspecified) | 5.67 |  | 2.95 |  | 7.07 | 25.2 | 5.74 | 10.1 | 4.84 | 3.14 | 12.2 | 11.7 |  | 8.19 | 5.42
CCCCn1c(C)c2c(c1C)C(=O)N(CC(O)CN1CCc3ccccc3C1)C2=O (stereo unspecified) |  | > 100 | > 100 | > 100 | > 100 | > 100 | 14.8 | > 100 | > 100 | > 100 | > 100 | > 100 | > 100 | > 100 | > 100
COc1ccc(-c2c(C#N)c(O)n(NS(=O)(=O)c3ccc(C)cc3)c(=O)c2C#N)cc1 |  | > 100 | > 100 | > 100 | > 100 | > 100 | > 100 | > 100 | > 100 | > 100 | > 100 | > 100 | > 100 | > 100 | > 100
CC[C@]1(Cc2ccc(OC)c(OC)c2)[C@@H]2C[C@@H](C3OCCO3)ON2O[C@H](OC2CCCC2(c2ccccc2)c2ccccc2)[C@@H]1OC(C)=O (stereo partly specified) | 45.5 |  | 37.7 | > 100 | 36.5 | 30.3 | 29.5 | 34.7 |  | 69.3 | 43.9 | > 100 | 41.1 | 53.9 | 
CC(/C=N\NC(=S)N1CCCCC1)=N/NC(=S)N1CCCCC1 |  | 14.7 | 3.86 | 11.1 | 2.6 | 19.5 | 6.36 | 9.76 | 15.8 | 5.85 | 15.4 | 11.8 | > 45.8 | > 100 | 4.28
CC(=O)Nc1ccc2cc(C)c(=O)[nH]c2n1 | > 100 | > 100 | > 100 | > 100 |  | > 100 | > 100 | > 100 | > 100 | > 100 | > 100 | > 100 |  |  | > 100
CC(C)(C)[Si](C)(C)OC1/C(=C/C#N)C(n2ccc(=O)[nH]c2=O)OC1CO (stereo unspecified) | > 100 |  | > 100 | > 100 |  |  | > 100 | > 100 | > 100 | > 100 |  | > 100 | > 100 |  | > 100
CC1(C)OC2C(O)CN3CCS[C@H]3C2O1 (stereo partly specified) | > 100 | > 100 | > 100 | > 100 | > 100 | > 100 | > 100 | > 100 | > 100 | > 100 | > 100 | > 100 |  | > 100 | > 100
O=C1C[C@H]2[C@@H](O1)[C@@H](O)CN1C(=O)c3ccccc3[C@H]21 | > 100 |  | > 100 | > 100 | > 100 | > 100 | > 100 | > 100 | > 100 | > 100 | > 100 | > 100 | > 100 | > 100 | > 100
N#CC1(C#N)C2CCCCC23OC(=N)C1(C#N)C(c1ccccc1)O3 (stereo unspecified) |  | 4.76 | 33 | 33.8 | > 100 | 28.6 | 43 | 49.7 |  | 34.1 | 37.3 | 37.6 | 49.9 | 45.1 | > 100
COC(=O)C1C=CN(N(C)C)C2=C1C(=O)c1c(O)cccc1C2=O (stereo unspecified) |  | 7.58 | 1.77 | 5.79 | 3.94 | 5.16 | 7.81 | 3.03 | 5.57 | 3.66 | 2.8 | 15 | 6.38 |  | 14.1

Compound | TGI (SR leukemia) [µM] | TGI (HS 578T breast) [µM] | TGI (SK-MEL-5 melanoma) [µM] | TGI (MDA-MB-231 breast) [µM] | TGI (NCI-H226 lung) [µM] | TGI (HCT-15 colon) [µM] | TGI (SK-MEL-2 melanoma) [µM] | TGI (NCI-H460 lung) [µM] | TGI (OVCAR-4 ovarian) [µM] | TGI (COLO 205 colon) [µM] | TGI (UACC-257 melanoma) [µM] | TGI (TK-10 renal) [µM] | TGI (MCF7 breast) [µM] | TGI (LOX IMVI melanoma) [µM] | TGI (RXF 393 renal) [µM]
Cc1ccsc1/C=N/Nc1ccc2ccccc2n1 |  | > 100 | 13.2 |  | > 100 | > 100 | > 100 |  | > 100 | > 100 | 53.2 | 66.2 | 32.3 | > 100 | 89.8
O=C(/C=C/C=C/c1ccccc1)c1ccc2c(c1)CCCC2 | 87.9 | 30.4 | > 100 | > 100 | 90.9 | > 100 | > 100 |  | > 100 | > 100 | > 100 | > 100 | > 100 | > 100 | 
CCOC(=O)NC1CN2CCC1CC2 (stereo unspecified) | > 100 | > 100 | > 100 | > 100 | > 100 | > 100 | > 100 | > 100 | > 100 | > 100 | > 100 |  |  | > 100 | > 100
CSc1nncc2[nH]c(C)nc12 |  |  | > 100 | > 100 | > 100 | > 100 | > 100 |  | > 100 | > 100 | > 100 | > 100 | > 100 | > 100 | 
O=[N+]([O-])c1cc2c(c3nonc13)OCCCCO2 |  | 67.7 | 21.2 | 12.1 | 28.2 | 13.7 | 29.2 | 14 | 27.4 | 17.9 | 28.9 | 93.7 | 24.2 | 12.6 | 20
CC12CC(C#N)(C#N)C(C#N)(CO1)C(=N)O2 (stereo unspecified) |  | > 100 | > 100 | > 100 | > 100 | > 100 | > 100 | > 100 | > 100 | > 100 | > 100 | > 100 | > 100 | > 100 | > 100
CC(=C\c1ccccc1)/C=C(\C#N)C(N)=O |  | > 10 | > 10 | > 10 | > 10 | > 10 | > 10 | > 10 |  | > 10 |  | > 10 | > 10 | > 10 | > 10
CC(C)C[C@H]1[C@@H](OCc2ccccc2)COS(=O)N1[C@H](C)c1ccccc1 (stereo partly specified) |  | 38.6 | 23.3 | 65.2 | 36 | > 100 | 36.1 | 47.8 |  | 30.4 | > 100 | > 100 |  | 28.2 | 32.1
Cc1c(O)c(C)c2c(C)cn(C(=O)C(C)(C)C)c2c1C |  | 77.2 | 27.8 | 28.5 | 33.5 | 40.6 | 43.4 | 63.8 | 27 | 30.3 |  | 36.4 | 20.3 | 92.2 | 41.6
O=C1/C(=C/c2ccccc2)NC(=S)N1CN1CCOCC1 | > 100 | > 100 | > 100 | > 100 | > 100 | > 100 | > 100 |  | > 100 | > 100 | > 100 | > 100 | > 100 | > 100 | 
CC(NNC(=O)CC(=O)N(C(=O)c1ccccc1)c1ccc(Cl)cc1)c1cc2ccccc2oc1=O (stereo unspecified) |  | > 10 | > 10 | > 10 | > 10 | > 10 | > 10 | > 10 | > 10 | > 10 | > 10 | > 10 | > 10 | > 10 | > 10
O=C(O)c1cccnc1 | > 100 | > 100 | > 100 | > 100 | > 100 | > 100 |  | > 100 | > 100 | > 100 | > 100 | > 100 | > 100 | > 100 | 
CCSc1[nH]c(Nc2nc(-c3ccccc3)n(-c3ccccc3)n2)c(C(N)=O)c1C(N)=O | > 10 |  | > 10 | > 10 |  | > 10 |  |  | > 10 | > 10 | > 10 | > 10 | > 10 | > 10 | > 10
O=C(NCCCN(CCCCN(CCCNC(=O)C(F)(F)F)CCCc1ccccc1)CCCc1ccccc1)C(F)(F)F |  | 4.2 | 3.43 | 3.11 | 27 | 2.98 |  | 3.27 | 17.6 | 3.11 | 3.32 | 3.79 | 3.05 | 3.89 | 3.31
O=C1NC(=S)NNC12c1ccccc1-c1ccccc12 | > 10 | > 10 | > 10 | > 10 | > 10 | > 10 |  | > 10 | > 10 | > 10 | > 10 | > 10 | > 10 | > 10 | 
CCN(CC)C(=S)SS(=O)(=O)c1ccc(F)cc1 | 57.5 | > 100 | > 100 | > 100 | > 100 | > 100 | > 100 | > 100 | > 100 | > 100 | 87.3 | > 100 |  | 41.7 | 40.4
NC12Oc3cc(O)cc(O)c3C1(c1ccc(Cl)cc1)c1c(O)cc(O)cc1O2 (stereo unspecified) | > 100 | > 100 | > 100 |  | > 100 | > 100 | > 100 | > 100 | > 100 | > 100 | > 100 | > 100 | > 100 | > 100 | > 100
